Where two headings read alike, the source gives them in different places.
Legend:
Format in all cases: biochemical
[1] = biological target: T1, mTOR (Homo sapiens, UniProt P42345); assay: mTOR kinase inhibition assay (radiometric or LanthaScreen TR-FRET); details: read-out: mTORC IC50
T1 construct: purchased Invitrogen

[2] = biological target: T2, PI3K α (p110α/p85α) (Homo sapiens, UniProt P42336); assay: PI 3-Kinase (human) HTRF assay, PI3K α; details: read-out: PI3K α IC50
T2 construct: purchased Upstate / Millipore Corporation

[3] = biological target: T3, PI3K δ (Homo sapiens, UniProt O00329); assay: PI 3-Kinase (human) HTRF assay, PI3K δ; details: read-out: PI3K δ IC50
T3 construct: purchased Upstate / Millipore Corporation

[4] = biological target: T4, PI3K γ (p110γ) (Homo sapiens, UniProt P48736); assay: PI 3-Kinase (human) HTRF assay, PI3K γ; details: read-out: PI3K γ IC50
T4 construct: purchased Upstate / Millipore Corporation

[5] = biological target: T5, PI3K β (p110β/p85α) (Homo sapiens, UniProt P42338); assay: PI 3-Kinase (human) HTRF assay, PI3K β; details: read-out: PI3K β IC50
T5 construct: purchased Upstate / Millipore Corporation

T1 sequence (P42345 1360-2549 limits assumed): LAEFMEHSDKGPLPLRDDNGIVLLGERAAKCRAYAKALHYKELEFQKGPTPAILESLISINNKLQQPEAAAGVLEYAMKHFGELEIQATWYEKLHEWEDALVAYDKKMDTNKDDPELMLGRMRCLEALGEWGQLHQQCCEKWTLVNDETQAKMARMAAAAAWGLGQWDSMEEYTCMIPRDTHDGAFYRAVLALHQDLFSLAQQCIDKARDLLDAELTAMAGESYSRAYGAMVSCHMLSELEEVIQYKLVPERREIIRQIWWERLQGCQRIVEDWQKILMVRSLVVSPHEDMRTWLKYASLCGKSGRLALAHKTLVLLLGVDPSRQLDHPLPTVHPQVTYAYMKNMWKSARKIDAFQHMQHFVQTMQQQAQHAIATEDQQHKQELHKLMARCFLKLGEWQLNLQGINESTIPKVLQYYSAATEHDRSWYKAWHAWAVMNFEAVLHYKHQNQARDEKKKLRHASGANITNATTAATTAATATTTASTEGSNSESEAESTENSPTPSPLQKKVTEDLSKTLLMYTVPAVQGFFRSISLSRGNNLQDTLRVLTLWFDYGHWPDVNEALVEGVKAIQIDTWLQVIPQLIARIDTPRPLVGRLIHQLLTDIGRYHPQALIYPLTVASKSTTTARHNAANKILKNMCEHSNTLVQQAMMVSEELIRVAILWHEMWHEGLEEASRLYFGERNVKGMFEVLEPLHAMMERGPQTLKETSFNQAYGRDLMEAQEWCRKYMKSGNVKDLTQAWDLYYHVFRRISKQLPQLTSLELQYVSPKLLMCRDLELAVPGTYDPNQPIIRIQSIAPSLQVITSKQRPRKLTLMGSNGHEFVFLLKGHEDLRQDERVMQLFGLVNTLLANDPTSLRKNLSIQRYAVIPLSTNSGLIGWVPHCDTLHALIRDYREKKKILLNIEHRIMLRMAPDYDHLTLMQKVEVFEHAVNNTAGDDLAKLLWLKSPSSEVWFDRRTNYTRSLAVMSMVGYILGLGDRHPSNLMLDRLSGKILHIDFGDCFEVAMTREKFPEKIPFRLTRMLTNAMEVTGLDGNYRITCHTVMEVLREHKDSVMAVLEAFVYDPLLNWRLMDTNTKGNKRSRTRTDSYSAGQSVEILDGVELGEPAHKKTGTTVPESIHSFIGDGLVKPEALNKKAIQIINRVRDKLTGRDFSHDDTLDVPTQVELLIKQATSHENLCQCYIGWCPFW
T3 sequence (O00329 whole entry): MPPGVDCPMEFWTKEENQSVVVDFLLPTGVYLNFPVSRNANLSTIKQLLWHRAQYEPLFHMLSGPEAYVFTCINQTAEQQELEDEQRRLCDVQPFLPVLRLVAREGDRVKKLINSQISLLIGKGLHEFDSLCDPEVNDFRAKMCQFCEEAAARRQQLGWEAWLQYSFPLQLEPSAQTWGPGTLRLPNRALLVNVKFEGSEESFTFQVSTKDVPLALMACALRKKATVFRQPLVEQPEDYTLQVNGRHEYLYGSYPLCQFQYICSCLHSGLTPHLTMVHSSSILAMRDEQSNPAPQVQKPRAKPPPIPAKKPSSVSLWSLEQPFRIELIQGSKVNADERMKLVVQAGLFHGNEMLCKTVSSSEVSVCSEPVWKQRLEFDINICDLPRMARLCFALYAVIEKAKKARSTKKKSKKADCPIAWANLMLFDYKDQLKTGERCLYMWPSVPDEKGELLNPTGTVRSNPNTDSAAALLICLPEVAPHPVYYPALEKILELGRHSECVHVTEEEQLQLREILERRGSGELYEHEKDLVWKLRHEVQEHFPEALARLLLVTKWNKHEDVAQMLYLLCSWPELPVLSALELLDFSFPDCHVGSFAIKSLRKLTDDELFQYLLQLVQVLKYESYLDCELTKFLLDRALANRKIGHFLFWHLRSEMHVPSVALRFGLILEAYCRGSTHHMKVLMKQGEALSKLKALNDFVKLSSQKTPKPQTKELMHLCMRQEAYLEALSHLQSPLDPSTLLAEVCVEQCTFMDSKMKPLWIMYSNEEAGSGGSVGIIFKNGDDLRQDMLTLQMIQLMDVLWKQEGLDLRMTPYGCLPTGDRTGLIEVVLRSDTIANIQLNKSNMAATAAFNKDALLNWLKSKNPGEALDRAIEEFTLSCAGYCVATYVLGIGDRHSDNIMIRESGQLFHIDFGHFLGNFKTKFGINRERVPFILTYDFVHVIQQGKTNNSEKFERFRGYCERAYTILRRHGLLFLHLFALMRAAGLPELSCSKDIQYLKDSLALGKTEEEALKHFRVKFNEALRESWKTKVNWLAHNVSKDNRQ
T3 sequence (P27986 whole entry partner): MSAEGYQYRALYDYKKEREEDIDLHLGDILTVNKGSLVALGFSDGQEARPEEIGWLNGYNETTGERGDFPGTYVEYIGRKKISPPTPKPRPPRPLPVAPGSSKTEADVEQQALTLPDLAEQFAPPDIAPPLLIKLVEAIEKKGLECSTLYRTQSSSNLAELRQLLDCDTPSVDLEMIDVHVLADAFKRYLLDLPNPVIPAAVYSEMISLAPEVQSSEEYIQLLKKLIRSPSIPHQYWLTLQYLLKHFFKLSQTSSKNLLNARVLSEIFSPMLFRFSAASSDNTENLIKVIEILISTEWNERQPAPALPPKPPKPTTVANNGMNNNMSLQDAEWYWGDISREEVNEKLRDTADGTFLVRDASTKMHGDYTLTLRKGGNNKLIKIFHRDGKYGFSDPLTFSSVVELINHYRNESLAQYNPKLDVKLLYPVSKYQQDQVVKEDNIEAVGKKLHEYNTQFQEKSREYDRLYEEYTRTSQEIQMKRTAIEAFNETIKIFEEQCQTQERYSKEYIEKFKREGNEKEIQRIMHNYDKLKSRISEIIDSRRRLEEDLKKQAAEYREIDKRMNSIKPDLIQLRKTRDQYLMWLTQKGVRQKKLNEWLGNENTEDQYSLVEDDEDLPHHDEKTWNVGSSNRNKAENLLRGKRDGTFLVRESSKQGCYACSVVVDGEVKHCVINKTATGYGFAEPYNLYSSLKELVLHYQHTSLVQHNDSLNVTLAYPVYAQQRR
T2 sequence (P42336 whole entry): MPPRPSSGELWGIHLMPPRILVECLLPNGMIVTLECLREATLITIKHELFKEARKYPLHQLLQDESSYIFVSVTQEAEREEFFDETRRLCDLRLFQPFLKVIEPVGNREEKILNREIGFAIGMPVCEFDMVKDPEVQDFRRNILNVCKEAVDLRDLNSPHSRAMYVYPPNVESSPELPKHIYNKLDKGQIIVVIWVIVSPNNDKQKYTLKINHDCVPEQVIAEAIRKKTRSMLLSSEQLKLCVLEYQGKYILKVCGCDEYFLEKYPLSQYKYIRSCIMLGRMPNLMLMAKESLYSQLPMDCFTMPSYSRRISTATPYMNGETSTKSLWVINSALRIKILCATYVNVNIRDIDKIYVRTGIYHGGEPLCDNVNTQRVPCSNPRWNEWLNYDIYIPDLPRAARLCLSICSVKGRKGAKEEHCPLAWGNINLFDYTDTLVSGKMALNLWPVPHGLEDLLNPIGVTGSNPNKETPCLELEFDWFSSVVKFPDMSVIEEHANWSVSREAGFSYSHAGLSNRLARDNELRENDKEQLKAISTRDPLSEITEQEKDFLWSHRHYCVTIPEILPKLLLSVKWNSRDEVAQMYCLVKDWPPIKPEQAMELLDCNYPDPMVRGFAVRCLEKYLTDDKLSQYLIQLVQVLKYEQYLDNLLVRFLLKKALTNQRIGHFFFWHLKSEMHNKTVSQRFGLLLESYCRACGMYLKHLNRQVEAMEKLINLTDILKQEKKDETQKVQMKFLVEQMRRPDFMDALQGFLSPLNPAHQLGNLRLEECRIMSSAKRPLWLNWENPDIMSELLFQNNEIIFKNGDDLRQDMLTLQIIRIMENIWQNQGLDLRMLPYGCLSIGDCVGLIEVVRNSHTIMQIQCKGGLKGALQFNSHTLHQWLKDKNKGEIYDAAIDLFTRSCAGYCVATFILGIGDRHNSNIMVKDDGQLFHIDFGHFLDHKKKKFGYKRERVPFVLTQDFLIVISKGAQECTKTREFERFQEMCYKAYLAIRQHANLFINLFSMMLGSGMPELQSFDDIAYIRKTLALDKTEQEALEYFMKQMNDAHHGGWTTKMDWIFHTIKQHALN
T2 sequence (P27986 whole entry partner): as the sequence (P27986 whole entry partner) above

SMILES	IC50 [1] [nM]	IC50 [2] [nM]	IC50 [3] [nM]	IC50 [4] [nM]	IC50 [5] [nM]	IC50 ([1]; Table 4 (PI3K α inhibitors)) [nM]	IC50 ([2]; Table 4 (PI3K α inhibitors)) [nM]	IC50 ([5]; Table 4 (PI3K α inhibitors)) [nM]	IC50 ([4]; Table 4 (PI3K α inhibitors)) [nM]	IC50 ([3]; Table 4 (PI3K α inhibitors)) [nM]
Nc1nc2ccc(-c3ccc4nccc(-c5ccncc5)c4c3)cc2s1 [Compound 3]	< 1000	< 100	< 1000	< 1000	> 10000	–	–	–	–	–
Nc1ccc2cc(-c3ccc4nccc(-c5ccncc5)c4c3)ccc2n1 [Compound 5]	< 1000	< 1000	< 10000	< 1000	> 10000	–	–	–	–	–
Nc1ncnc2ccc(-c3ccc4nccc(-c5ccncc5)c4c3)cc12 [Compound 8]	> 10000	< 10000	–	< 1000	> 10000	–	–	–	–	–
Nc1ncc2cc(-c3ccc4nccc(-c5ccncc5)c4c3)ccc2n1 [Compound 9]	> 10000	< 1000	–	< 1000	< 10000	–	–	–	–	–
Nc1nc2cccc(-c3ccc4nccc(-c5ccncc5)c4c3)c2o1 [Compound 15]	< 100	< 100	< 1000	–	< 100	–	–	–	–	–
Cn1cc(-c2ccnc3ccc(-c4ccc5oc(N)nc5c4)cc23)cn1 [Compound 26]	< 1000	< 100	< 100	< 100	–	–	–	–	–	–
Nc1nc2cc(-c3ccc4nccn4c3)ccc2o1 [Compound 40]	< 10000	< 10000	> 10000	< 10000	–	–	–	–	–	–
CN1CCN(C(=O)c2cnc3ccc(-c4ccc5oc(N)nc5c4)cn23)CC1 [Compound 44]	< 10000	< 100	< 10000	< 10000	–	–	–	–	–	–
N#Cc1cnc2ccc(-c3ccc4oc(N)nc4c3)cc2c1-c1ccncc1 [Compound 46]	< 100	< 100	< 100	< 100	–	–	–	–	–	–
Nc1nc2cc(-c3ccc4ncnc(OC5CCOCC5)c4c3)ccc2o1 [Compound 47]	< 100	< 100	< 1000	–	< 1000	–	–	–	–	–
Nc1nc2cc(-c3ccc4ncn(C5CCOCC5)c(=O)c4c3)ccc2o1 [Compound 55]	> 10000	< 1000	> 10000	> 10000	–	–	–	–	–	–
CC(=O)N1CCC(Nc2ncnc3ccc(-c4ccc5oc(N)nc5c4)cc23)CC1 [Compound 60]	< 1000	< 100	< 1000	< 100	< 10000	–	–	–	–	–
Nc1nc2cc(-c3ccn4ncc(-c5ccncc5)c4n3)ccc2o1 [Compound 62]	< 100	< 100	< 100	< 100	< 100	–	–	–	–	–
Nc1nc2cc(-c3ccc4ncc(=O)[nH]c4c3)ccc2o1 [Compound 72]	< 1000	< 100	> 10000	< 100	< 1000	–	–	–	–	–
CC(C)N1CCC(n2cnc3ccc(-c4ccc5oc(N)nc5c4)cc3c2=O)CC1 [Compound 74]	< 10000	< 100	> 10000	< 10000	< 10000	–	–	–	–	–
CC(=O)N1CCC(N(C)c2ncnc3ccc(-c4ccc5oc(N)nc5c4)cc23)CC1 [Compound 137]	> 10000	< 100	< 1000	–	< 1000	–	–	–	–	–
Nc1nc2cc(-c3ccc4nc(N)sc4c3)ccc2o1 [Compound 232]	< 10000	< 1000	< 10000	–	< 1000	–	–	–	–	–
Nc1nc2cc(-c3cccc4[nH]nc(N)c34)ccc2o1 [Compound 236]	> 10000	> 10000	–	> 10000	> 10000	–	–	–	–	–
CC(C)Oc1nc(-c2ccc3oc(N)nc3c2)cnc1N [Compound 237]	< 1000	< 10000	–	< 10000	< 10000	–	–	–	–	–

SMILES	IC50 [1] [nM]	IC50 [2] [nM]	IC50 [3] [nM]	IC50 [4] [nM]	IC50 [5] [nM]	IC50 ([1]; Table 4 (PI3K α inhibitors)) [nM]	IC50 ([2]; Table 4 (PI3K α inhibitors)) [nM]	IC50 ([5]; Table 4 (PI3K α inhibitors)) [nM]	IC50 ([4]; Table 4 (PI3K α inhibitors)) [nM]	IC50 ([3]; Table 4 (PI3K α inhibitors)) [nM]
Nc1nc2cc(-c3ccc4nc(N)oc4c3)ccc2o1 [Compound 241]	< 10000	< 1000	< 1000	< 100	–	–	–	–	–	–
Nc1nc2cc(-c3ccc4ncc(N5CC(N6CCOCC6)C5)nc4c3)ccc2o1 [Compound 273]	< 1000	< 100	> 10000	–	> 10000	–	–	–	–	–
CN1CCN(C2CN(c3cnc4ccc(-c5ccc6oc(N)nc6c5)cc4n3)C2)CC1 [Compound 274]	< 10000	< 100	< 10000	–	< 10000	–	–	–	–	–
Nc1nc2cc(-c3ccc4ncc(N5CC(N6CC[C@H](O)C6)C5)nc4c3)ccc2o1 [Compound 322]	> 10000	< 100	–	< 1000	< 1000	–	–	–	–	–
CN(C)[C@@H]1CCN(c2cnc3ccc(-c4ccc5oc(N)nc5c4)cc3n2)C1 [Compound 378]	< 1000	< 100	< 10000	–	< 100	–	–	–	–	–
Nc1nc2cc(-c3ccc4ncc(N5CCNC(C(F)(F)F)C5)nc4c3)ccc2o1 (stereo not shown) [Compound 384]	< 1000	< 100	< 10000	–	< 1000	–	–	–	–	–
CC1(C)CN(C2CN(c3cnc4ccc(-c5ccc6oc(N)nc6c5)cc4n3)C2)CCN1 [Compound 388]	< 100	< 100	< 1000	–	< 1000	–	–	–	–	–
CS(=O)(=O)Nc1cc(-c2ccc3ncc(C(=O)N4CCOCC4)n3c2)cnc1Cl [Compound 418]	< 100	< 100	< 100	–	< 100	–	–	–	–	–
Nc1nc2cc(-c3ccc4ncc(N5CC(N6CCOCC6)C5)nc4n3)ccc2o1 [Compound 556]	–	–	–	–	–	< 10000	< 100	> 10000	–	–
C[C@H]1CN(C2CN(c3cnc4ccc(-c5ccc6oc(N)nc6c5)nc4n3)C2)CCN1 [Compound 561]	–	–	–	–	–	< 10000	< 100	> 10000	–	–
C[C@@H]1CN(C2CN(c3cnc4ccc(-c5ccc6oc(N)nc6c5)nc4n3)C2)CCN1 [Compound 563]	–	–	–	–	–	> 10000	< 100	> 10000	> 10000	–
C[C@H]1CN(c2cnc3ccc(-c4ccc5oc(N)nc5c4)nc3c2)CCN1 [Compound 598]	–	–	–	–	–	> 10000	< 100	< 100	< 1000	–
Nc1nc2cc(-c3ccc4ncc(N5CC(N6CCOCC6)C5)cc4n3)ccc2o1 [Compound 604]	–	–	–	–	–	> 10000	< 100	–	< 1000	–
CC1(C)CN(C2CN(c3cnc4ccc(-c5ccc6oc(N)nc6c5)nc4c3)C2)CCN1 [Compound 609]	–	–	–	–	–	> 10000	< 100	–	< 1000	< 1000
C[C@H]1COCCN1C1CN(c2cnc3ccc(-c4ccc5oc(N)nc5c4)nc3n2)C1 [Compound 612]	–	–	–	–	–	> 10000	< 100	> 10000	–	–
Cc1nccn1C1CN(c2cnc3ccc(-c4ccc5oc(N)nc5c4)nc3c2)C1 [Compound 614]	–	–	–	–	–	> 10000	< 100	–	< 100	< 1000
CN1CCN(C2CN(c3cnc4ccc(-c5ccc6oc(N)nc6c5)nc4c3)C2)CC1=O [Compound 615]	–	–	–	–	–	< 10000	< 100	–	< 100	< 1000
Nc1nc2cc(-c3ccc4ncc(N5CC(N6CCN(CCO)CC6)C5)cc4n3)ccc2o1 [Compound 616]	–	–	–	–	–	> 10000	< 100	–	< 1000	< 1000
CCN1CCN(C2CN(c3cnc4ccc(-c5ccc6oc(N)nc6c5)nc4c3)C2)CC1 [Compound 626]	–	–	–	–	–	> 10000	< 100	< 1000	–	< 1000

From patent US20150087627A1, “COMBINATION OF KINASE INHIBITORS AND USES THEREOF” (Intellikine LLC, priority 2011, published 2015)
